The values below come from patent US11970499B1, “Pyrazolo[1,5-c]pyrimidine compounds as CK2 inhibitors” (KING FAISAL UNIVERSITY, priority 2023, dated 2024).

One assay concerns PC3 (prostate). The assay can be described thus: MTT in vitro cytotoxic activity assay, PC3. The note with it: Homo sapiens, PC-3; PC3 cells, exposed for 96 hours; read-out: Cytotoxicity activity IC50, PC3 (prostate). The assay is classed as cell-based. As to the method:
(§1) Compounds 1-20 were screened for their in vitro cytotoxic activity utilizing a 3-(4,5-dimethyl-thiazol-2-yl)-2,5-diphenyltetrazolium bromide (MTT) assay against selected cancer human cell lines consisting of PC3 (prostate), HCT 116 (colon), A375 (melanoma), H1299 (lung), MIAPaCa-2 (pancreas), HL60 (leukemia), MCF7 (breast), MDA-MB-231 (breast) (T. Mosmann, J. Immunol. Meth., 1983, 65, 55-63). The cells were cultured at 37° C. in RMPI1640 medium supplemented with 10% fetal bovine serum, 50 IU/mL penicillin, and 50 μg/mL streptomycin in a 5% CO2 incubator. All cells were sub-cultured 3 times/week by trypsinisation. Viable cells were seeded and allowed to adhere for 12 h before a test drug was added in 96-well plates at an initial density of 1.0×10^5 cells/mL. Tumor cell lines were separately exposed to various concentrations of the tested compounds followed by incubation at a temperature of 37° C. during 96 hours inside a medium of fresh RMPI 1640. Cells were subsequently incubated at 37° C. using MTT at 0.5 mg/mL during 4 hours. After removal of supernatant, formazan crystals were dissolved in isopropanol and the optical density was measured at 570 nm. CX-4945 was used as a positive control.

In the next assay the test system is HCT116 (colon). Put plainly: MTT in vitro cytotoxic activity assay, HCT116. The assay is classed as cell-based. The note with it: Homo sapiens, HCT-116; HCT116 cells, exposed for 96 hours; read-out: Cytotoxicity activity IC50, HCT116 (colon). As to the method:
as §1

For a further assay, the system named is A375 (melanoma). Put plainly: MTT in vitro cytotoxic activity assay, A375. The note with it: Homo sapiens, A-375; A375 cells, exposed for 96 hours; read-out: Cytotoxicity activity IC50, A375 (melanoma). The assay is classed as cell-based. As to the method:
as §1

The subject of the next assay is H1299 (lung). The assay can be described thus: MTT in vitro cytotoxic activity assay, H1299. The format is cell-based. The settings on record: Homo sapiens, NCI-H1299; H1299 cells, exposed for 96 hours; read-out: Cytotoxicity activity IC50, H1299 (lung). As to the method: as §1
A further assay relates to MIAPaCa-2 (pancreas). Put plainly: MTT in vitro cytotoxic activity assay, MIAPaCa-2. The assay is classed as cell-based. The settings on record: Homo sapiens, MIA PaCa-2; MIAPaCa-2 cells, exposed for 96 hours; read-out: Cytotoxicity activity IC50, MIAPaCa-2 (pancreas). As to the method: as §1
In another assay the test system is HL60 (leukemia). The assay can be described thus: MTT in vitro cytotoxic activity assay, HL60. The assay is classed as cell-based. The note with it: Homo sapiens, HL-60; HL60 cells, exposed for 96 hours; read-out: Cytotoxicity activity IC50, HL60 (leukemia). As to the method:
as §1

The next assay concerns MCF7 (breast). The assay can be described thus: MTT in vitro cytotoxic activity assay, MCF7. The format is cell-based. The settings on record: Homo sapiens; MCF7 cells, exposed for 96 hours; read-out: Cytotoxicity activity IC50, MCF7 (breast). As to the method:
as §1

The next assay concerns MDA-MB-231 (breast). Put plainly: MTT in vitro cytotoxic activity assay, MDA-MB-231. The assay is classed as cell-based. The settings on record: Homo sapiens; MDA-MB-231 cells, exposed for 96 hours; read-out: Cytotoxicity activity IC50, MDA-MB-231 (breast). As to the method:
as §1

Another assay has as its target T1, recombinant human CK2 (Homo sapiens, UniProt P68400).
T1 construct: purchased Millipore
The assay can be described thus: CK2 Kinase Assay (33P-ATP, substrate peptide RRRDDDSDDD). The assay is classed as biochemical. The settings on record: recombinant human CK2 holoenzyme, final ATP 15 μM, 10 min at 30° C.; read-out: protein kinase CK2 activity IC50. As to the method: CK2 Kinase Assay was conducted using the protocol as described in Pierre F. et al; J. Med. Chem. 2011, 54, 635-654. The tested compounds in aqueous solution were added at a volume of 10 μL to a reaction mixture comprising 10 μL of assay dilution buffer (ADB; 20 mM MOPS, pH 7.2, 25 mM β-glycerol phosphate, 5 mM EGTA, 1 mM sodium orthovanadate, and 1 mM dithiothreitol), 10 μL of substrate peptide (RRRDDDSDDD, dissolved in ADB at a concentration of 1 mM), 10 μL of recombinant human CK2 (RRββ-holoenzyme, 25 ng dissolved in ADB; Millipore). Reactions were initiated by the addition of 10 μL of ATP solution (90% 75 mMMgCl2, 75 sM ATP (final ATP concentration:15 μM) dissolved in ADB; 10% [γ-^33P] ATP (stock 1 mCi/100 μL; 3000 Ci/mmol (Perkin-Elmer) and maintained for 10 min at 30° C. The reactions were quenched with 100 μL of 0.75% phosphoric acid and then transferred to and filtered through a phosphor cellulose filter plate (Millipore). After washing each well five times with 0.75% phosphoric acid, the plate was dried under vacuum for 5 min and, following the addition of 15 μL of scintillation fluid to each well, the residual radioactivity was measured using a Wallac luminescence counter. The IC50 values were derived from eight concentrations of test inhibitors.

T1 sequence (P68400 whole entry): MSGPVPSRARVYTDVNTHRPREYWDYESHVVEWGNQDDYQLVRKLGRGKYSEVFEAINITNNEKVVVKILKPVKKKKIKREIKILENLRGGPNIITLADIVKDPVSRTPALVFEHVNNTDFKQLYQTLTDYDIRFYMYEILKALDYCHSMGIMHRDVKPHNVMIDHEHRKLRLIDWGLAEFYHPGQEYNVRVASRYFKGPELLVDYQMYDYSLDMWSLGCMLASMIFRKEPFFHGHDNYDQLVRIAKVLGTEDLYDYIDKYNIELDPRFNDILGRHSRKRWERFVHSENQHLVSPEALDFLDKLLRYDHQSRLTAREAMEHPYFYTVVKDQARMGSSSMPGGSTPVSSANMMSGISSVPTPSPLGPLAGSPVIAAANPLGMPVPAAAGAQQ
T1 sequence (P67870 whole entry partner): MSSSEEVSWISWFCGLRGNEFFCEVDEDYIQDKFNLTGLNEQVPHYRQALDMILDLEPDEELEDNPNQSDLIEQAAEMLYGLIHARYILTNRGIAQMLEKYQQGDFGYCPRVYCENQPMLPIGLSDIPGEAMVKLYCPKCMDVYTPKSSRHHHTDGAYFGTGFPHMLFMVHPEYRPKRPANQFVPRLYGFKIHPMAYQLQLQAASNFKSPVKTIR

For the compound `Clc1cccc(Nc2c(-c3ccncn3)nn3cnccc23)c1` [Compound 13, N-(3-chlorophenyl)-2-(pyrimidin-4-yl)pyrazolo[1,5-c]pyrimidin-3-amine], the IC50 in the assay with PC3 (prostate) was determined as 1200 nM; in the assay on HCT116 (colon), 2100 nM; in the assay with A375 (melanoma) it was 3400 nM; in the assay with H1299 (lung) it was 1600 nM; with MIAPaCa-2 (pancreas), 1500 nM; with HL60 (leukemia), 3900 nM. Moreover, the results for the IC50 in the assay with MCF7 (breast), in the assay with MDA-MB-231 (breast) and on recombinant human CK2 were 5500 nM, 4600 nM and 110 nM, respectively.
